In US10435399B2, “HDAC6 inhibitory heterocyclic compound” (TAKEDA PHARMACEUTICAL COMPANY LIMITED, priority 2017, dated 2019):

Target: T1, HDAC6 enzyme (Homo sapiens, UniProt Q9UBN7)
T1 construct: transducing full length HDAC6 gene into Sf-9 insect cells; GST; purchased SignalChem; host or cells: Sf-9 insect cells
T1 sequence (Q9UBN7 1-1215): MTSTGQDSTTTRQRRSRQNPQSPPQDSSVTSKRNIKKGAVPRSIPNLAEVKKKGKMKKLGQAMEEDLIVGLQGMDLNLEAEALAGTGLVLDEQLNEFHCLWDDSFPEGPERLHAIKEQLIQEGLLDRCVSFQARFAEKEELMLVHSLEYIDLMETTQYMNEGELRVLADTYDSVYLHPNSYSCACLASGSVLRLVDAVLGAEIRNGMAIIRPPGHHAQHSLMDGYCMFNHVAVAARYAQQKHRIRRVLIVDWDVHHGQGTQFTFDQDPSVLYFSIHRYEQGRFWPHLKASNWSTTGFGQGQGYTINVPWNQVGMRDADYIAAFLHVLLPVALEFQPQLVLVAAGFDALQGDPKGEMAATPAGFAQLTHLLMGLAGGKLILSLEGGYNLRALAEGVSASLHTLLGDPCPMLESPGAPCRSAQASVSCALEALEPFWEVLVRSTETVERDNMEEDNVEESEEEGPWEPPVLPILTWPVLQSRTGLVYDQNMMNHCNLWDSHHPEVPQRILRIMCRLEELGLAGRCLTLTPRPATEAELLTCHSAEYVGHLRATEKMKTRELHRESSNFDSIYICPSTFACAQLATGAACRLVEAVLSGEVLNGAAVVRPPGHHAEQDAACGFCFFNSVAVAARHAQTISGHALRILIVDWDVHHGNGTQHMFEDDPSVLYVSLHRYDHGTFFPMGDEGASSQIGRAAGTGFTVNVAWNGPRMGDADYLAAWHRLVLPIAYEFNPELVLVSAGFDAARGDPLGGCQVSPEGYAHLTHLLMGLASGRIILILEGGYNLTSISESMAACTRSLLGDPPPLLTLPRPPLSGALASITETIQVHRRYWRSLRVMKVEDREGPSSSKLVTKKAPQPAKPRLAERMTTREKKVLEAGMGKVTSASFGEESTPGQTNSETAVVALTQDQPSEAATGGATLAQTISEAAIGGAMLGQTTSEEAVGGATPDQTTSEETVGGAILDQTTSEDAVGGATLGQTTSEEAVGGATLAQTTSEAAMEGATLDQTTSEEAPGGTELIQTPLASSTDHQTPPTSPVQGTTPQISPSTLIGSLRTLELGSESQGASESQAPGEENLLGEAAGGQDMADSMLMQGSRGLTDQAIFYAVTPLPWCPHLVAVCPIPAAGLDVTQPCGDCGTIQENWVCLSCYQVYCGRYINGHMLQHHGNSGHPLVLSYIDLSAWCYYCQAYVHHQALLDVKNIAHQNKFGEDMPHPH
Experiment: HDAC6 enzyme inhibitory activity (HDAC-Glo I/II Assay kit)
Assay type: biochemical
Conditions: 10 μM; wells without enzyme = 100% inhibition; read-out: HDAC6 inhibitory rate (%) (10 μM)
How it was run: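 Full-length human HDAC6 (GST-purified, Sf-9 expressed) preincubated with compound 60 min at room temperature in Tris-HCl pH 7.5 buffer with MgCl2, KCl, NaCl, glutathione, Tween-20. HDAC-Glo I/II substrate-developer then added, 20 min room temperature, luminescence read. Inhibition relative to no-enzyme wells as 100%.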

Row | Structure (SMILES) | inhibition at 10 µM
1 | CC(C)(C(=O)N[C@@H]1CCCC[C@H]1N1Cc2ncc(-c3nnc(C(F)F)o3)cc2C1=O)C(F)(F)F [Example 217, N-((1R,2R)-2-(3-(5-(difluoromethyl)-1,3,4-oxadiazol-2-yl)-5-oxo-5,7-dihydro-6H-pyrrolo[3,4-b]pyridin-6-yl)cyclohexyl)-3,3,3-trifluoro-2,2-dimethylpropanamide] | 98%
2 | O=C1c2cc(-c3nnc(C(F)F)o3)cnc2CN1[C@@H]1CCCC[C@H]1NC(=O)C1(F)CCC1 [Example 218, N-((1R,2R)-2-(3-(5-(difluoromethyl)-1,3,4-oxadiazol-2-yl)-5-oxo-5,7-dihydro-6H-pyrrolo[3,4-b]pyridin-6-yl)cyclohexyl)-1-fluorocyclobutanecarboxamide] | 100%
3 | O=C1c2cc(-c3nnc(C(F)F)o3)cnc2CN1[C@@H]1CCCC[C@H]1NC(=O)C1(C(F)(F)F)CCC1 [Example 219] | 100%
4 | O=C1c2cc(-c3nnc(C(F)F)o3)ccc2CN1[C@@H]1CCCC[C@H]1O [Example 220, 6-(5-(difluoromethyl)-1,3,4-oxadiazol-yl)-2-((1R,2R)-2-hydroxycyclohexyl)-isoindolin-1-one] | 94%

Further lines, results first:

Row | inhibition at 10 µM | Structure (SMILES)
5 | 100% | CC(C)(F)C(=O)N[C@@H]1CCCC[C@H]1N1Cc2ncc(-c3nnc(C(F)F)o3)cc2C1=O [Example 214, N-((1R,2R)-2-(3-(5-(difluoromethyl)-1,3,4-oxadiazol-2-yl)-5-oxo-5,7-dihydro-6H-pyrrolo[3,4-b]pyridin-6-yl)cyclohexyl)-2-fluoro-2-methylpropanamide]
6 | 101% | O=C1c2cc(-c3nnc(C(F)F)o3)cnc2CN1[C@@H]1CCCC[C@H]1NC(=O)C(F)(F)F [Example 215, N-((1R,2R)-2-(3-(5-(difluoromethyl)-1,3,4-oxadiazol-2-yl)-5-oxo-5,7-dihydro-6H-pyrrolo[3,4-b]pyridin-6-yl)cyclohexyl)-2,2,2-trifluoroacetamide]
7 | 100% | O=C1c2cc(-c3nnc(C(F)F)o3)cnc2CN1[C@@H]1CCCC[C@H]1NC(=O)C1(F)CC1 [Example 216, N-((1R,2R)-2-(3-(5-(difluoromethyl)-1,3,4-oxadiazol-2-yl)-5-oxo-5,7-dihydro-6H-pyrrolo[3,4-b]pyridin-6-yl)cyclohexyl)-1-fluorocyclopropanecarboxamide]
8 | 101% | O=C1c2cc(-c3nnc(C(F)F)o3)cnc2CN1[C@@H]1CCCC[C@H]1NC(=O)C1(c2ccc(F)cc2)CC1 [Example 221, N-((1R,2R)-2-(3-(5-(difluoromethyl)-1,3,4-oxadiazol-2-yl)-5-oxo-5,7-dihydro-6H-pyrrolo[3,4-b]pyridin-6-yl)cyclohexyl)-1-(4-fluorophenyl)-cyclopropanecarboxamide]
9 | 99% | O=C(N[C@@H]1CCCC[C@H]1N1Cc2ncc(-c3nnc(C(F)F)o3)cc2C1=O)c1ccccc1F [Example 222, N-((1R,2R)-2-(3-(5-(difluoromethyl)-1,3,4-oxadiazol-2-yl)-5-oxo-5,7-dihydro-6H-pyrrolo[3,4-b]pyridin-6-yl)cyclohexyl)-2-fluorobenzamide]
10 | 99% | N#Cc1ccccc1C(=O)N[C@@H]1CCCC[C@H]1N1Cc2ncc(-c3nnc(C(F)F)o3)cc2C1=O [Example 223, 2-cyano-N-((1R,2R)-2-(3-(5-(difluoro-methyl)-1,3,4-oxadiazol-2-yl)-5-oxo-5,7-dihydro-6H-pyrrolo[3,4-b]-pyridin-6-yl)cyclohexyl)benzamide]
11 | 100% | O=C(N[C@@H]1CCCC[C@H]1N1Cc2ncc(-c3nnc(C(F)F)o3)cc2C1=O)c1cccc(F)c1 [Example 224, N-((1R,2R)-2-(3-(5-(difluoromethyl)-1,3,4-oxadiazol-2-yl)-5-oxo-5,7-dihydro-6H-pyrrolo[3,4-b]pyridin-6-yl)cyclohexyl)-3-fluorobenzamide]
